Structures are written as SMILES. Values joined by “and” are separate entries in the source; they are usually repeats but may differ in a detail not shown here. Equal entries are not always repeated. Toxic doses and inconclusive results are not listed.

The record followed here is PubChem BioAssay AID330 (DTP/NCI, 2004).

For the test, the system named is P388 leukemia ip, CD2F1 mice, survival T/C. Nature of the test: NCI In Vivo Anticancer Drug Screen. Data for tumor model P388 Leukemia (intraperitoneal) in CD2F1 (CDF1) mice. As to conditions: endpoint: median survival time, higher = longer survival. The method, boiled down:
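Mice carrying the transplanted tumor received test compound or vehicle. Survival was recorded in each group, and the value is the treated-group measurement divided by that of the vehicle-treated control group.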

Where [1] appears, read: dose: 200.0 mg/kg/injection, schedule: Q04DX003 (ip), vehicle: saline with Tween-80.
Setting [2] is: dose: 50.0 mg/kg/injection, schedule: Q01DX009 (ip), vehicle: saline with Tween-80.
[3] abbreviates: dose: 100.0 mg/kg/injection, schedule: Q01DX009 (ip), vehicle: saline with Tween-80.
[4] abbreviates: dose: 200.0 mg/kg/injection, schedule: Q01DX009 (ip), vehicle: saline with Tween-80.
The mark [5] stands for this setting: dose: 100.0 mg/kg/injection, schedule: Q04DX002 (ip), vehicle: Klucel (hydroxypropylcellulose) (HPC).
Where [6] appears, read: dose: 200.0 mg/kg/injection, schedule: Q04DX002 (ip), vehicle: Klucel (hydroxypropylcellulose) (HPC).
Where [7] appears, read: dose: 400.0 mg/kg/injection, schedule: Q04DX002 (ip), vehicle: Klucel (hydroxypropylcellulose) (HPC).

In the case of `N#[N+]c1ccc2c(S(=O)(=O)Oc3ccc(C(=O)c4ccccc4)c(OS(=O)(=O)c4cccc5c([O-])c([N+]#N)ccc45)c3)cccc2c1[O-]`, the T/C runs as follows: (dose: 12.5 mg/kg/injection, schedule: Q01DX005 (ip), vehicle: saline with Tween-80) 110 % of control; (dose: 25.0 mg/kg/injection, schedule: Q01DX005 (ip), vehicle: saline with Tween-80) 107 % of control; (dose: 50.0 mg/kg/injection, schedule: Q01DX005 (ip), vehicle: saline with Tween-80) 105 % of control and 107 % of control.
As to `CC(=O)OCC1OC(n2ccc3c(=O)n(C)c(=O)[nH]c32)C(OC(C)=O)C(OC(C)=O)C1OC(C)=O` (centres undefined), the T/C was 92 % of control (dose: 100.0 mg/kg/injection, schedule: Q01DX001 (ip), vehicle: saline with Tween-80); 105 % of control (dose: 200.0 mg/kg/injection, schedule: Q01DX001 (ip), vehicle: saline with Tween-80); 108 % of control (dose: 400.0 mg/kg/injection, schedule: Q01DX001 (ip), vehicle: saline with Tween-80).
As for `O=C1c2ccccc2C(=O)c2ncccc21`, the T/C (dose: 100.0 mg/kg/injection, schedule: Q04DX003 (ip), vehicle: saline with Tween-80) is 100 % of control; the T/C under setting [1] is 99 % of control; the T/C (dose: 400.0 mg/kg/injection, schedule: Q04DX003 (ip), vehicle: saline with Tween-80) is 100 % of control.
Take `Cc1ccc(SCC(=O)O)c(C)c1`: the T/C by setting is: under setting [2], 88 % of control; under setting [3], 88 % of control; under setting [4], 94 % of control; (dose: 400.0 mg/kg/injection, schedule: Q01DX009 (ip), vehicle: saline with Tween-80) 103 % of control.
Consider `c1ccc(-c2nc3ccccc3nc2-c2ccc(-c3ccc(-c4nc5ccccc5nc4-c4ccccc4)cc3)cc2)cc1`, for which the T/C runs as follows: (dose: 6.25 mg/kg/injection, schedule: Q01DX009 (ip), vehicle: saline with Tween-80) 88 % of control and 96 % of control; (dose: 12.5 mg/kg/injection, schedule: Q01DX009 (ip), vehicle: saline with Tween-80) 101 % of control and 90 % of control; (dose: 25.0 mg/kg/injection, schedule: Q01DX009 (ip), vehicle: saline with Tween-80) 99 % of control and 120 % of control and 92 % of control; under setting [2], 114 % of control and 87 % of control.
In the case of `CC(=O)NS(=O)(=O)c1ccc(N/N=C(\C#N)C(N)=O)cc1`, the T/C reads like this: (dose: 50.0 mg/kg/injection, schedule: Q01DX005 (ip), vehicle: Klucel (hydroxypropylcellulose) (HPC)) 92 % of control; (dose: 100.0 mg/kg/injection, schedule: Q01DX005 (ip), vehicle: Klucel (hydroxypropylcellulose) (HPC)) 100 % of control.
Take `COc1cc(OC)c(NC(=S)Nc2sc3c(c2C#N)CCCC3)cc1Cl`: the T/C by setting is: (dose: 50.0 mg/kg/injection, schedule: Q01DX009 (ip), vehicle: gum acacia) 110 % of control; (dose: 100.0 mg/kg/injection, schedule: Q01DX009 (ip), vehicle: gum acacia) 103 % of control; (dose: 200.0 mg/kg/injection, schedule: Q01DX009 (ip), vehicle: gum acacia) 102 % of control.
Regarding `NC(=O)N(c1ccccc1)c1ccccn1`, the T/C by setting is: (dose: 60.0 mg/kg/injection, schedule: Q01DX005 (ip), vehicle: saline with Tween-80) 97 % of control; (dose: 120.0 mg/kg/injection, schedule: Q01DX005 (ip), vehicle: saline with Tween-80) 97 % of control; (dose: 240.0 mg/kg/injection, schedule: Q01DX005 (ip), vehicle: saline with Tween-80) 94 % of control.
For the compound `CCOC(=O)c1cc(N)c(N2CCCC2)cc1Cl`, the T/C is, setting by setting: (dose: 90.0 mg/kg/injection, schedule: Q04DX003 (ip), vehicle: saline with Tween-80) 100 % of control; (dose: 133.0 mg/kg/injection, schedule: Q04DX003 (ip), vehicle: saline with Tween-80) 100 % of control; under setting [1], 90 % of control; (dose: 300.0 mg/kg/injection, schedule: Q04DX003 (ip), vehicle: saline with Tween-80) 95 % of control.
As to `O=C(c1ccccc1)N1c2ccccc2N(C(=O)c2ccccc2)C1c1nc2ccccc2n1C(=O)c1ccccc1`, the T/C is 109 % of control under setting [2], 100 % of control under setting [3] and 102 % of control under setting [4].
For `CCC(=O)OCC(=O)[C@]1(O)Cc2c(O)c3c(c(O)c2[C@@H](OC2CC(N)C(O)C(C)O2)C1)C(=O)c1c(OC)cccc1C3=O` (some centres undefined), the T/C runs as follows: (dose: 0.25 mg/kg/injection, schedule: Q01DX009 (ip), vehicle: saline) 163 % of control; (dose: 0.5 mg/kg/injection, schedule: Q01DX009 (ip), vehicle: saline sonified) 172 % of control; (dose: 0.5 mg/kg/injection, schedule: Q01DX009 (ip), vehicle: saline) 174 % of control; (dose: 1.0 mg/kg/injection, schedule: Q01DX009 (ip), vehicle: saline sonified) 168 % of control; (dose: 1.0 mg/kg/injection, schedule: Q01DX009 (ip), vehicle: saline) 225 % of control; (dose: 2.0 mg/kg/injection, schedule: Q01DX009 (ip), vehicle: saline sonified) 172 % of control. For the same compound, the T/C is 252 % of control (dose: 2.0 mg/kg/injection, schedule: Q01DX009 (ip), vehicle: saline) and 114 % of control (dose: 8.0 mg/kg/injection, schedule: Q01DX009 (ip), vehicle: saline).
Consider `O=P1(c2ccccc2)CCCCN1Cc1ccccc1` (centres undefined), for which the T/C is 108 % of control (dose: 100.0 mg/kg/injection, schedule: Q04DX003 (ip), vehicle: saline); 94 % of control (dose: 200.0 mg/kg/injection, schedule: Q04DX003 (ip), vehicle: saline); 116 % of control (dose: 400.0 mg/kg/injection, schedule: Q04DX003 (ip), vehicle: saline).
Consider `O=C1CC2(CC=CCC23OCCO3)CC(CI)O1` (centres undefined), for which the T/C (dose: 2.5 mg/kg/injection, schedule: Q01DX005 (ip), vehicle: acid diluted with saline) is 106 % of control; the T/C (dose: 5.0 mg/kg/injection, schedule: Q01DX005 (ip), vehicle: Klucel (hydroxypropylcellulose) (HPC)) is 100 % of control; the T/C (dose: 5.0 mg/kg/injection, schedule: Q01DX005 (ip), vehicle: acid diluted with saline) is 111 % of control; the T/C (dose: 10.0 mg/kg/injection, schedule: Q01DX005 (ip), vehicle: Klucel (hydroxypropylcellulose) (HPC)) was 100 % of control; the T/C (dose: 10.0 mg/kg/injection, schedule: Q01DX005 (ip), vehicle: acid diluted with saline) was 93 % of control; the T/C (dose: 20.0 mg/kg/injection, schedule: Q01DX005 (ip), vehicle: Klucel (hydroxypropylcellulose) (HPC)) is 98 % of control. Besides, the T/C was 100 % of control (dose: 20.0 mg/kg/injection, schedule: Q01DX005 (ip), vehicle: acid diluted with saline) and 103 % of control (dose: 40.0 mg/kg/injection, schedule: Q01DX005 (ip), vehicle: Klucel (hydroxypropylcellulose) (HPC)).
Regarding `CC1=CC2C(=O)N(C)C1c1ccccc12` (centres undefined), the T/C under setting [5] is 100 % of control, the T/C under setting [6] was 100 % of control and the T/C under setting [7] was 97 % of control.
Regarding `CN(C)c1ccc(C2OC(=N)C(=S)N2C)cc1` (centres undefined), the T/C is 112 % of control (dose: 60.0 mg/kg/injection, schedule: Q01DX005 (ip), vehicle: Klucel (hydroxypropylcellulose) (HPC)); 109 % of control (dose: 120.0 mg/kg/injection, schedule: Q01DX005 (ip), vehicle: Klucel (hydroxypropylcellulose) (HPC)); 109 % of control (dose: 240.0 mg/kg/injection, schedule: Q01DX005 (ip), vehicle: Klucel (hydroxypropylcellulose) (HPC)).
Regarding `Cc1cccc(=O)[n-]1.Cc1cccc(=O)[n-]1.Cc1cccc(=O)[n-]1.Cc1cccc(=O)[n-]1.[Mo+2].[Mo+2]`, the T/C is 102 % of control under setting [5], 98 % of control under setting [6] and 100 % of control under setting [7].
Take `CCN(c1ccccc1)c1cc2c(cc1[N+](=O)[O-])no[n+]2[O-]`: the T/C is, setting by setting: (dose: 1.87 mg/kg/injection, schedule: Q01DX009 (ip), vehicle: saline) 101 % of control; (dose: 3.75 mg/kg/injection, schedule: Q01DX009 (ip), vehicle: saline) 91 % of control; (dose: 7.5 mg/kg/injection, schedule: Q01DX009 (ip), vehicle: saline) 90 % of control and 97 % of control; (dose: 15.0 mg/kg/injection, schedule: Q01DX009 (ip), vehicle: saline) 103 % of control and 91 % of control; (dose: 30.0 mg/kg/injection, schedule: Q01DX009 (ip), vehicle: saline) 93 % of control.
Turning to `NC(CS)C(=O)O` (centres undefined) (tested in a mixture with another compound), the T/C was 90 % of control (dose: 3.12 mg/kg/injection, schedule: Q01DX009 (ip), vehicle: suspension in saline); 107 % of control (dose: 6.25 mg/kg/injection, schedule: Q01DX009 (ip), vehicle: suspension in saline); 110 % of control (dose: 12.5 mg/kg/injection, schedule: Q01DX009 (ip), vehicle: suspension in saline); 110 % of control (dose: 25.0 mg/kg/injection, schedule: Q01DX009 (ip), vehicle: suspension in saline).
